Assay results reported in ChEMBL document CHEMBL3272271, “Folate antagonists. 13. 2,4-Diamino-6-](alpha,alpha,alpha-trifluoro-m-tolyl)thio]quinazoline and related 2,4-diamino-6-[(phenyl- and naphthyl)thio]quinazolines, a unique class of antimetabolites with extraordinary antimalarial and antibacterial effects” (J Med Chem, 1978).
Values after ≈ are worked out from the molar mass of the structure shown. Active and inactive are the calls of the source. No cut-off for these calls is given here.

Experiments:
Plasmodium gallinaceum [1] = experiment: Antimalarial activity against sporozoite-induced Plasmodium gallinaceum infected in white leghorn chicken assessed as increase in mean survival days of host at 10 mg/kg, sc administered 72 hrs after infection relative to control; format: functional; conditions: route subcutaneous
Plasmodium gallinaceum [2] = experiment: Antimalarial activity against sporozoite-induced Plasmodium gallinaceum infected in white leghorn chicken assessed as disease cure from parasite infection at 40 mg/kg, sc administered 72 hrs after infection; format: functional, organism-based; parameters: dose 40 mg/kg
Plasmodium gallinaceum [3] = experiment: Antimalarial activity against trophozoite-induced Plasmodium gallinaceum infected in white leghorn chicken assessed as increase in mean survival days of host at 0.63 mg/kg, sc administered 72 hrs after infection relative to control; format: functional; conditions: route subcutaneous
Staphylococcus aureus [4] = experiment: Antibacterial activity against drug-resistant Staphylococcus aureus S18713 by gradient plate test; format: functional
Plasmodium berghei [5] = experiment: Antimalarial activity against Plasmodium berghei infected in mouse assessed as disease cure from parasite infection at 320 mg/kg, sc administered 72 hrs after infection; format: functional, organism-based; parameters: dose 320 mg/kg
Plasmodium gallinaceum [6] = experiment: Antimalarial activity against trophozoite-induced Plasmodium gallinaceum infected in white leghorn chicken assessed as increase in mean survival days of host at 80 mg/kg, sc administered 72 hrs after infection relative to control; format: functional; conditions: route subcutaneous
Plasmodium berghei [7] = experiment: Antimalarial activity against Plasmodium berghei infected in mouse assessed as increase in mean survival days of host at 10 mg/kg, sc administered 72 hrs after infection relative to control; format: functional; conditions: route subcutaneous
Plasmodium berghei [8] = experiment: Antimalarial activity against Plasmodium berghei infected in mouse assessed as increase in mean survival days of host at 160 mg/kg, sc administered 72 hrs after infection relative to control; format: functional; conditions: route subcutaneous
Plasmodium berghei [9] = experiment: Antimalarial activity against trophozoite-induced Plasmodium berghei infected in mouse assessed as daily dose required to suppression of 90% parasite infection administered with diet for 6 days; format: functional
Plasmodium gallinaceum [10] = experiment: Antimalarial activity against sporozoite-induced Plasmodium gallinaceum infected in white leghorn chicken assessed as disease cure from parasite infection at 320 mg/kg, sc administered 72 hrs after infection; format: functional, organism-based; parameters: dose 320 mg/kg
Escherichia coli = experiment: Antibacterial activity against Escherichia coli Vogel by gradient plate test; format: functional
Plasmodium gallinaceum [11] = experiment: Antimalarial activity against sporozoite-induced Plasmodium gallinaceum infected in white leghorn chicken assessed as increase in mean survival days of host at 20 mg/kg, sc administered 72 hrs after infection relative to control; format: functional; conditions: route subcutaneous
Plasmodium gallinaceum [12] = experiment: Antimalarial activity against trophozoite-induced Plasmodium gallinaceum infected in white leghorn chicken assessed as increase in mean survival days of host at 2.5 mg/kg, sc administered 72 hrs after infection relative to control; format: functional; conditions: route subcutaneous
Plasmodium gallinaceum [13] = experiment: Antimalarial activity against trophozoite-induced Plasmodium gallinaceum infected in white leghorn chicken assessed as increase in mean survival days of host at 40 mg/kg, sc administered 72 hrs after infection relative to control; format: functional; conditions: route subcutaneous
Plasmodium gallinaceum [14] = experiment: Antimalarial activity against sporozoite-induced Plasmodium gallinaceum infected in white leghorn chicken assessed as disease cure from parasite infection at 20 mg/kg, sc administered 72 hrs after infection; format: functional, organism-based; parameters: dose 20 mg/kg
Plasmodium gallinaceum [15] = experiment: Antimalarial activity against sporozoite-induced Plasmodium gallinaceum infected in white leghorn chicken assessed as increase in mean survival days of host at 5 mg/kg, sc administered 72 hrs after infection relative to control; format: functional; conditions: route subcutaneous
Plasmodium berghei [16] = experiment: Antimalarial activity against Plasmodium berghei infected in mouse assessed as increase in mean survival days of host at 80 mg/kg, sc administered 72 hrs after infection relative to control; format: functional; conditions: route subcutaneous
Plasmodium berghei [17] = experiment: Ratio of quinine hydrochloride SD90 to compound SD90 for trophozoite-induced Plasmodium berghei infected in mouse assessed as daily dose required to suppression of 90% parasite infection administered with diet for 6 days; format: functional
Plasmodium berghei [18] = experiment: Antimalarial activity against Plasmodium berghei infected in mouse assessed as increase in mean survival days of host at 40 mg/kg, sc administered 72 hrs after infection relative to control; format: functional; conditions: route subcutaneous
Plasmodium gallinaceum [19] = experiment: Antimalarial activity against trophozoite-induced Plasmodium gallinaceum infected in white leghorn chicken assessed as increase in mean survival days of host at 10 mg/kg, sc administered 72 hrs after infection relative to control; format: functional; conditions: route subcutaneous
Staphylococcus aureus [20] = experiment: Antibacterial activity against Staphylococcus aureus UC-96 by gradient plate test; format: functional
Plasmodium berghei [21] = experiment: Antimalarial activity against Plasmodium berghei infected in mouse assessed as disease cure from parasite infection at 640 mg/kg, sc administered 72 hrs after infection; format: functional, organism-based; parameters: dose 640 mg/kg
Shigella sonnei = experiment: Antibacterial activity against Shigella sonnei C-10 by gradient plate test; format: functional
Plasmodium gallinaceum [22] = experiment: Antimalarial activity against trophozoite-induced Plasmodium gallinaceum infected in white leghorn chicken assessed as increase in mean survival days of host at 160 mg/kg, sc administered 72 hrs after infection relative to control; format: functional; conditions: route subcutaneous
Gallus gallus [23] = experiment: Toxicity in sporozoite-induced Plasmodium gallinaceum infected white leghorn chicken assessed as mortality at 80 mg/kg, sc administered 72 hrs after infection measured up to 6 days; format: organism-based; parameters: dose 80 mg/kg, route subcutaneous; conditions: in vivo
Plasmodium gallinaceum [24] = experiment: Antimalarial activity against sporozoite-induced Plasmodium gallinaceum infected in white leghorn chicken assessed as increase in mean survival days of host at 40 mg/kg, sc administered 72 hrs after infection relative to control; format: functional; conditions: route subcutaneous
Plasmodium berghei [25] = experiment: Antimalarial activity against Plasmodium berghei infected in mouse assessed as increase in mean survival days of host at 20 mg/kg, sc administered 72 hrs after infection relative to control; format: functional; conditions: route subcutaneous
Gallus gallus [26] = experiment: Toxicity in sporozoite-induced Plasmodium gallinaceum infected white leghorn chicken assessed as mortality at 160 mg/kg, sc administered 72 hrs after infection measured up to 6 days; format: organism-based; parameters: dose 160 mg/kg, route subcutaneous; conditions: in vivo
Plasmodium gallinaceum [27] = experiment: Antimalarial activity against trophozoite-induced Plasmodium gallinaceum infected in white leghorn chicken assessed as increase in mean survival days of host at 5 mg/kg, sc administered 72 hrs after infection relative to control; format: functional; conditions: route subcutaneous
Gallus gallus [28] = experiment: Toxicity in sporozoite-induced Plasmodium gallinaceum infected white leghorn chicken assessed as mortality at 320 mg/kg, sc administered 72 hrs after infection measured up to 6 days; format: organism-based; parameters: dose 320 mg/kg, route subcutaneous; conditions: in vivo
Plasmodium gallinaceum [29] = experiment: Antimalarial activity against sporozoite-induced Plasmodium gallinaceum infected in white leghorn chicken assessed as increase in mean survival days of host at 80 mg/kg, sc administered 72 hrs after infection relative to control; format: functional; conditions: route subcutaneous
Pseudomonas aeruginosa = experiment: Antibacterial activity against Pseudomonas aeruginosa 28 by gradient plate test; format: functional
Plasmodium gallinaceum [30] = experiment: Antimalarial activity against trophozoite-induced Plasmodium gallinaceum infected in white leghorn chicken assessed as increase in mean survival days of host at 1.25 mg/kg, sc administered 72 hrs after infection relative to control; format: functional; conditions: route subcutaneous
Plasmodium berghei [31] = experiment: Antimalarial activity against Plasmodium berghei infected in mouse assessed as disease cure from parasite infection at 160 mg/kg, sc administered 72 hrs after infection; format: functional, organism-based; parameters: dose 160 mg/kg
Enterococcus faecalis = experiment: Antibacterial activity against Streptococcus faecalis MGH-2 by gradient plate test; format: functional
Plasmodium gallinaceum [32] = experiment: Antimalarial activity against sporozoite-induced Plasmodium gallinaceum infected in white leghorn chicken assessed as disease cure from parasite infection at 160 mg/kg, sc administered 72 hrs after infection; format: functional, organism-based; parameters: dose 160 mg/kg
Plasmodium gallinaceum [33] = experiment: Antimalarial activity against trophozoite-induced Plasmodium gallinaceum infected in white leghorn chicken assessed as disease cure from parasite infection at 160 mg/kg, sc administered 72 hrs after infection; format: functional, organism-based; parameters: dose 160 mg/kg
Plasmodium gallinaceum [34] = experiment: Antimalarial activity against sporozoite-induced Plasmodium gallinaceum infected in white leghorn chicken assessed as disease cure from parasite infection at 80 mg/kg, sc administered 72 hrs after infection; format: functional, organism-based; parameters: dose 80 mg/kg
Plasmodium gallinaceum [35] = experiment: Antimalarial activity against trophozoite-induced Plasmodium gallinaceum infected in white leghorn chicken assessed as increase in mean survival days of host at 20 mg/kg, sc administered 72 hrs after infection relative to control; format: functional; conditions: route subcutaneous
Gallus gallus [36] = experiment: Toxicity in trophozoite-induced Plasmodium gallinaceum infected white leghorn chicken assessed as mortality at 320 mg/kg, sc administered 72 hrs after infection measured after 48 hrs; format: organism-based; parameters: dose 320 mg/kg, route subcutaneous; conditions: in vivo
Mus musculus = experiment: Toxicity in Plasmodium berghei infected mouse assessed as mortality at 640 mg/kg, sc administered 72 hrs after infection measured after 2 to 5 days; format: organism-based; parameters: dose 640 mg/kg, route subcutaneous; conditions: in vivo

For Cc1cccc(Sc2ccc3nc(N)nc(N)c3c2)c1, the MST (Plasmodium gallinaceum [1]) was 1.8 days, the Activity (Plasmodium gallinaceum [2]) was “Active” and the MST (Plasmodium gallinaceum [3]) was 0 days. For the same compound, the MIC (Staphylococcus aureus [4]) was under 0.25 µg/mL, the Activity (Plasmodium berghei [5]) was “Active” and the MST (Plasmodium gallinaceum [6]) was 7.8 days. The MST (Plasmodium berghei [7]) was 2.4 days, the MST (Plasmodium berghei [8]) was 12.7 days and the SD90 (Plasmodium berghei [9]) was 6.2 mg/kg/day. For the same compound, the Activity (Plasmodium gallinaceum [10]) was “Active”, the MIC (Escherichia coli) was under 0.25 µg/mL and the MST (Plasmodium gallinaceum [11]) was 3.8 days. The MST (Plasmodium gallinaceum [12]) was 0 days, the MST (Plasmodium gallinaceum [13]) was 6.4 days and the Activity (Plasmodium gallinaceum [14]) was “Active”. The MST (Plasmodium gallinaceum [15]) was 0.3 days, the MST (Plasmodium berghei [16]) was 7.7 days and the Ratio (Plasmodium berghei [17]) was 12. The MST (Plasmodium berghei [18]) was 6.7 days, the MST (Plasmodium gallinaceum [19]) was 6 days and the MIC (Staphylococcus aureus [20]) was under 0.25 µg/mL. The Activity (Plasmodium berghei [21]) was “Active”, the MIC (Shigella sonnei) was 1.5 µg/mL (≈ 5.31 µM) and the MST (Plasmodium gallinaceum [22]) was 10.7 days. For the same compound, the Activity (Gallus gallus [23]) was “Toxic”, the MST (Plasmodium gallinaceum [24]) was 1.7 days and the MST (Plasmodium berghei [25]) was 2.3 days. For the same compound, the Activity (Gallus gallus [26]) was “Toxic”, the MST (Plasmodium gallinaceum [27]) was 0 days and the Activity (Gallus gallus [28]) was “Toxic”. It also gave an MST (Plasmodium gallinaceum [29]) of 4.7 days, an MIC (Pseudomonas aeruginosa) of over 25 µg/mL and an MST (Plasmodium gallinaceum [30]) of 0 days. For the same compound, the Activity (Plasmodium berghei [31]) was “Active”, the MIC (Enterococcus faecalis) was under 0.25 µg/mL and the Activity (Plasmodium gallinaceum [32]) was “Active”. The Activity (Plasmodium gallinaceum [33]) was “Active”, the Activity (Plasmodium gallinaceum [34]) was “Active” and the MST (Plasmodium gallinaceum [35]) was 6.2 days. For the same compound, the Activity (Gallus gallus [36]) was “Toxic” and the Activity (Mus musculus) was “Toxic”.
